Series [1] in a line: Hydrodynamic diameter of complexes by dynamic light scattering. The series is classed as physicochemical. As to the method:
Sizes of complexes described in the present examples were analyzed by DynaPro PlateReader II, using dynamic light scattering (DLS) for calculating the hydrodynamic diameter of complexes. […] Ten acquisitions are recorded per well, each lasting 5 seconds.

Series [2] relates to BALB/c mice. Kind of series: In-vivo luciferase expression in applied tissue after i.m. application of RNA complexes. As to conditions: N/P 6 (FIG. 7B).
The subject of series [3] is BALB/c mice. As to conditions: mouse, in vivo.
Series [4] relates to BALB/c mice. The following applies: mouse, in vivo. This is another data set of the same source.
Series [5] concerns C57BL/6 IFNAR −/− mice. In kind it is in vivo.
For series [6], the system named is hPBMCs. The experiment in a line: Cytokine secretion by hPBMCs 24 h after transfection with modRNA formulations (MSD kit). In kind it is cell-based, human. As to conditions: oligosaccharide:Tween40 1:0.5, modRNA, N/P 6, 24 hours (FIGS. 19A-D). As to the method: All groups received modRNA formulated at N/P 6. Formulations were complexed with RNA in MBG Buffer (final concentration 5% w/v Glucose, 10 mM MES, pH 6.1), at RNA final concentration of 0.15 mg/ml and the mixing ratio of the RNA containing solution and the oligosaccharide+Tween40 containing solution was 9:1 (v:v) for all the cases. IL-6, TNF-α, IL-1β and IFN-γ secretion after 24 hours of transfection of […] hPMBCs was evaluated in the supernatants using MSD Kit Standard Protocol.

Series [7] relates to BALB/c mice. The experiment in a line: Intramuscular vaccination with HA modRNA formulated with oligosaccharide+Tween40 (Example 10). The following applies: mouse, in vivo.

On to `CCCCCCCCCC(=O)OC1C(OC(=O)CCCCCCCCC)[C@H](OC(=O)CCCCCCCCC)C(CSCCNC(=S)NCCN(C)C)O[C@@H]1O[C@H]1OC(CSCCNC(=S)NCCN(C)C)[C@@H](OC(=O)CCCCCCCCC)C(OC(=O)CCCCCCCCC)C1OC(=O)CCCCCCCCC` (stereo partly drawn) [JLF41], for which, in series [1] (modRNA (FIG. 6A)), the “Difference in particle size between N/P 1 and N/P 6” value is on record as “greater difference in particle size”.
Consider `CCCCCCCCCC(=O)OC1C(OC(=O)CCCCCCCCC)[C@H](OC(=O)CCCCCCCCC)C(CSCCNC(=S)NCCN2CCOCC2)O[C@@H]1O[C@H]1OC(CSCCNC(=S)NCCN2CCOCC2)[C@@H](OC(=O)CCCCCCCCC)C(OC(=O)CCCCCCCCC)C1OC(=O)CCCCCCCCC` (stereo partly drawn) [JLF99], for which, in series [1] (saRNA, N/P 6 (FIG. 5A)), the Hydrodynamic diameter result is recorded as “about 150 nm”. Further, in series [2], the “modRNA expression (bioluminescence normalized to the JLF41-modRNA group)” value is “promising modRNA expression”. Besides, in series [3], the “CD4-CD8 response versus LNP benchmark” value is “no significant difference”, the “IgG against HA-antigen over the course of the experiment versus LNP benchmark” value is “no apparent differences” and the “Serological concentration of IgG at the end-point (day 49)” value is recorded as “comparable to the LNP group”. Also, in series [4], the “Delivery of RNAs and immune response” value is “functionally delivered all the RNAs upon i.m injection and elicited a strong immune response”. In series [5] (JLF99+Tween40 1:0.5, 1.3 μg saRNA i.m., prime/boost d0/d28, N/P6), the “Immunological response with CCHFV-Gc antigen” value is given as “strong immunological response”. For the same compound, in series [5] (mouse, in vivo), the “Antibody level versus LNP” value is given as “lower than the LNP”, the “Antibody levels versus LNP benchmark” value is listed as “identical to the ones achieved by the LNP benchmark” and the “T-cell responses against Gc-peptides” value is “equally strong”.
Regarding `CCCCCCCCCC(=O)OC1C(OC(=O)CCCCCCCCC)[C@H](OC(=O)CCCCCCCCC)C(CSCCNC(=S)NCCn2ccnc2)O[C@@H]1O[C@H]1OC(CSCCNC(=S)NCCn2ccnc2)[C@@H](OC(=O)CCCCCCCCC)C(OC(=O)CCCCCCCCC)C1OC(=O)CCCCCCCCC` (stereo partly drawn) [JLF110], the “Level of secretion of pro-inflammatory cytokines, IL-6, TNF-α, IL-1β and IFN-γ” value in series [6] is on record as “medium levels of secretion”.
Take `CCCCCCCCCC(=O)OC[C@@]1(O[C@H]2OC(CSCCNC(=S)NCCN3CCOCC3)[C@@H](OC(=O)CCCCCCCCC)[C@H](OC(=O)CCCCCCCCC)C2OC(=O)CCCCCCCCC)O[C@H](CSCCNC(=S)NCCN2CCOCC2)[C@@H](OC(=O)CCCCCCCCC)[C@@H]1OC(=O)CCCCCCCCC` (stereo partly drawn) [JLF218]: in series [7], the “IgG concentration against HA” value was “then by JLF99 and JLF218”.
As for `CCCCCCCCCC(=O)OC1C(OC(=O)CCCCCCCCC)[C@H](OC(=O)CCCCCCCCC)C(CSCCNC(=S)NCCN2CCC(C(N)=O)CC2)O[C@@H]1O[C@H]1OC(CSCCNC(=S)NCCN2CCC(C(N)=O)CC2)[C@@H](OC(=O)CCCCCCCCC)C(OC(=O)CCCCCCCCC)C1OC(=O)CCCCCCCCC` (stereo partly drawn) [JLF244], in series [6], the “Level of secretion of pro-inflammatory cytokines, IL-6, TNF-α, IL-1β and IFN-γ” value is “highest level of secretion”. The “IgG concentration against HA” value in series [7] is recorded as “highest IgG concentration”.
